Laboratory results published in the supplement of paper PMC10307832.

Key:
Test in all cases: relative viability (nuclei count vs DMSO), 5 days (fraction); higher = more cells survive
[1] = compound: O=C(NC1CCNCC1)c1n[nH]cc1NC(=O)c1c(Cl)cccc1Cl [AT-7519] + Nc1nc2[nH]cc(CCc3ccc(C(=O)N[C@@H](CCC(=O)O)C(=O)O)cc3)c2c(=O)[nH]1 [Pemetrexed] (partner 0.2 µM)
Procedure, shortened: (§1)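 Each reported value is a median over duplicate plates. It expresses relative viability: treated-well nuclei count divided by vehicle-well nuclei count. Lung cancer cell lines in 1536-well plates were dosed by pin tool a day after seeding, alone with one drug or with a fixed anchor-drug dose plus five library-drug doses (not always all listed) in √10 steps, and nuclei were counted after 5 days.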

[2] = compound: C1=CC2=C(C=C(C(=C2N=C1)O)N=NC3=CC4=C(C=C3)C=C(C=C4)S(=O)(=O)O)S(=O)(=O)O + COc1cccc2cc(-c3nc([C@H]4CC[C@H](C(=O)O)CC4)n4ncnc(N)c34)[nH]c12 [OSI-027] (partner 0.5 µM)
Procedure, shortened: as §1

[3] = compound: O=C(NC1CCNCC1)c1n[nH]cc1NC(=O)c1c(Cl)cccc1Cl [AT-7519]
Procedure, shortened: (§2)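 A plate was accepted only when its control CV was below 25% and the cells had doubled at least once. Viability is defined from nuclear counts as treated wells divided by vehicle wells, with the median taken across plates. That median covers lung cancer cell lines grown in 1536-well plates, dosed by pinning at five √10-spaced library-drug concentrations, and counted in MetaXpress from 4× Hoechst images after 5 days.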

[4] = compound: C1=CC2=C(C=C(C(=C2N=C1)O)N=NC3=CC4=C(C=C3)C=C(C=C4)S(=O)(=O)O)S(=O)(=O)O
Procedure, shortened: as §2

NCI-H3122
relative viability ([1]; first compound 0.01 µM): 0.215
relative viability ([1]; first compound 0.03162 µM): 0.209
relative viability ([1]; first compound 0.3162 µM): 0.173
relative viability ([1]; first compound 1 µM): 0.176
relative viability ([2]; first compound 0.08 µM): 1.09
relative viability ([2]; first compound 0.253 µM): 0.919
relative viability ([2]; first compound 0.8 µM): 0.899
relative viability ([2]; first compound 2.53 µM): 0.856
relative viability ([2]; first compound 8 µM): 0.922
relative viability ([3]; 0.01 µM): 1.09
relative viability ([3]; 0.03162 µM): 1
relative viability ([3]; 0.3162 µM): 1.01
relative viability ([3]; 1 µM): 0.699
relative viability ([4]; 0.08 µM): 1.03
relative viability ([4]; 0.253 µM): 0.976
relative viability ([4]; 0.8 µM): 0.98
relative viability ([4]; 2.53 µM): 0.999
relative viability ([4]; 8 µM): 0.956

PC-3 [JPC-3]
relative viability ([1]; first compound 0.01 µM): 1.05
relative viability ([1]; first compound 0.03162 µM): 1.1
relative viability ([1]; first compound 0.3162 µM): 1.11
relative viability ([1]; first compound 1 µM): 1.47
relative viability ([2]; first compound 0.08 µM): 0.815
relative viability ([2]; first compound 0.253 µM): 0.71
relative viability ([2]; first compound 0.8 µM): 0.791
relative viability ([2]; first compound 2.53 µM): 0.778
relative viability ([2]; first compound 8 µM): 0.769
relative viability ([3]; 0.01 µM): 1.01
relative viability ([3]; 0.03162 µM): 1.02
relative viability ([3]; 0.3162 µM): 1.01
relative viability ([3]; 1 µM): 1.03
relative viability ([4]; 0.08 µM): 1.04
relative viability ([4]; 0.253 µM): 1.03
relative viability ([4]; 0.8 µM): 1.04
relative viability ([4]; 2.53 µM): 1.06
relative viability ([4]; 8 µM): 0.997

PC-14
relative viability ([1]; first compound 0.01 µM): 0.138
relative viability ([1]; first compound 0.03162 µM): 0.135
relative viability ([1]; first compound 0.3162 µM): 0.118
relative viability ([1]; first compound 1 µM): 0.103
relative viability ([2]; first compound 0.08 µM): 1.16
relative viability ([2]; first compound 0.253 µM): 0.861
relative viability ([2]; first compound 0.8 µM): 0.819
relative viability ([2]; first compound 2.53 µM): 0.833
relative viability ([2]; first compound 8 µM): 0.837
relative viability ([3]; 0.01 µM): 0.971
relative viability ([3]; 0.03162 µM): 0.94
relative viability ([3]; 0.3162 µM): 0.928
relative viability ([3]; 1 µM): 0.714
relative viability ([4]; 0.08 µM): 1.02
relative viability ([4]; 0.253 µM): 0.95
relative viability ([4]; 0.8 µM): 0.944
relative viability ([4]; 2.53 µM): 1.07
relative viability ([4]; 8 µM): 0.94

RERF-LC-KJ
relative viability ([1]; first compound 0.01 µM): 0.448
relative viability ([1]; first compound 0.03162 µM): 0.473
relative viability ([1]; first compound 0.3162 µM): 0.414
relative viability ([1]; first compound 1 µM): 0.303
relative viability ([2]; first compound 0.08 µM): 0.664
relative viability ([2]; first compound 0.253 µM): 0.624
relative viability ([2]; first compound 0.8 µM): 0.593
relative viability ([2]; first compound 2.53 µM): 0.608
relative viability ([2]; first compound 8 µM): 0.588
relative viability ([3]; 0.01 µM): 1.01
relative viability ([3]; 0.03162 µM): 0.995
relative viability ([3]; 0.3162 µM): 0.991
relative viability ([3]; 1 µM): 0.675
relative viability ([4]; 0.08 µM): 1.08
relative viability ([4]; 0.253 µM): 1.04
relative viability ([4]; 0.8 µM): 1.03
relative viability ([4]; 2.53 µM): 1.01
relative viability ([4]; 8 µM): 0.967
